{"source": "patent US12150940B2", "about": "“WASp-protecting small molecules, compositions, methods and uses thereof in the treatment of innate and acquired immune-related disorders or conditions” (BAR ILAN UNIVERSITY, priority 2016, dated 2024)", "biological_target": "T1, WASp (Homo sapiens, UniProt P42768)", "T1 construct": "endogenous in cells; host or cells: primary human platelets from healthy donors", "T1 sequence (P42768 1-502)": "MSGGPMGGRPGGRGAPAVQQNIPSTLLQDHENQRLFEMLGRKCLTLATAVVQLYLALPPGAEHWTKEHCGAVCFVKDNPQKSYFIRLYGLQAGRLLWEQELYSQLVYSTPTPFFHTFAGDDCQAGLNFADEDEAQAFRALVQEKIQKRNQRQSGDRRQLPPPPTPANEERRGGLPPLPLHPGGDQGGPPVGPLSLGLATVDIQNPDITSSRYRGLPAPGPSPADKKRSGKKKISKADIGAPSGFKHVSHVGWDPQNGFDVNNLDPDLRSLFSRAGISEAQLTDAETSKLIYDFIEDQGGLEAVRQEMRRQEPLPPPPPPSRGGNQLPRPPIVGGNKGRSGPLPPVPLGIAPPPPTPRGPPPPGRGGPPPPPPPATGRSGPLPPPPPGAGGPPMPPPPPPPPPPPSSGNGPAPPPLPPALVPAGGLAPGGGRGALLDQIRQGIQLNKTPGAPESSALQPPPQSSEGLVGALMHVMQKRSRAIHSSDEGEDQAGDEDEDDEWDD", "assay": "WASp expression in anti-CD3/anti-CD28-activated PBMCs (western blot)", "type": "cell-based", "procedure": "FIG. 4C-4D. Freshly-isolated PBMCs were incubated with SMC #6 or control at 37° C. for the indicated times. The PBMCs were either co-stimulated (+) with anti-CD3 and anti-CD28 or left unstimulated (−), followed by lysis. Lysates were analyzed for WASp expression by immunoblotting with anti-WASp and anti-GAPDH as loading control (FIG. 4C). Relative WASp expression was determined by densitometric analysis and is presented in a summarizing graph of FIG. 4D. Error bars represent the SE from the mean. P values were calculated versus DMSO-treated control cells by two-tailed Student's t-test, and is indicated therein. Data are representative of three independent experiments.\nJurkat T-cells (FIG. 5A) or Freshly-isolated PBMCs (FIG. 5B) were incubated for 15 min at 37° C. with either control or the indicated WASp-binding SMCs, followed by co-stimulation with anti-CD3 and anti-CD28 and lysis. Freshly-isolated platelets were incubated for 15 min at 37° C. with either control or the indicated WASp-binding SMCs, followed by stimulation with TRAP-6 (10 μM) and lysis (FIG. 5C). Lysates were analyzed for WASp expression by immunoblotting with anti-WASp and anti-GAPDH as loading control. Western blot is representative of three independent experiments. […] Relative WASp expression was determined by densitometric analysis. Error bars represent the SE from the mean. […]"}
{"smiles": "CC(=O)N[C@H]1C[C@@H](c2ccc3c(c2)nnn3C)O[C@@H](c2ccc(Cl)cc2)C1", "note": "[SMC #6, N-[(2R,4R,6S)-2-(4-chlorophenyl)-6-(1-methylbenzotriazol-5-yl)oxan-4-yl]acetamide]", "values": [{"measurement": "WASp degradation in PBMCs", "setting": "after 15 min of incubation", "value": "attenuated WASp degradation"}, {"measurement": "WASp degradation in PBMCs", "setting": "after 2 h of incubation, compared with 15 min", "value": "more pronounced"}]}
